Results reported in ChEMBL document CHEMBL1201862, “PubChem BioAssay data set” (2004).
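Results reflect a 48-hour exposure of cells in 96-well plates to compound at five concentrations. Abbreviation: GI50, concentration required for 50% inhibition of growth.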 Calls of active or inactive are those of the source. Cut-off read from the data, not from the text of the source: active = GI50 up to about 1.1 µM and inactive = higher.

Experiments:
Assay in all cases: NCI anticancer screen, dose series, 48 h
786-0 = tested on: 786-0
A498 = tested on: A498
A549 = tested on: A549
ACHN = tested on: ACHN
CAKI-1 = tested on: CAKI-1
CCRF-CEM = tested on: CCRF-CEM
COLO 205 = tested on: COLO 205
DLD-1 = tested on: DLD-1
DMS-273 = tested on: DMS-273
EKVX = tested on: EKVX
HCC 2998 = tested on: HCC 2998
HCT-116 = tested on: HCT-116
HCT-15 = tested on: HCT-15
HL-60 = tested on: HL-60
HOP-18 = tested on: HOP-18
HOP-62 = tested on: HOP-62
HT-29 = tested on: HT-29
IGROV-1 = tested on: IGROV-1
K562 = tested on: K562
KM-20L2 = tested on: KM-20L2
KM12 = tested on: KM12
LOX IMVI = tested on: LOX IMVI
LXFL 529 = tested on: LXFL 529
M14 = tested on: M14
M19-MEL = tested on: M19-MEL
MOLT-4 = tested on: MOLT-4
Malme-3M = tested on: Malme-3M
NCI-H226 = tested on: NCI-H226
NCI-H23 = tested on: NCI-H23
NCI-H460 = tested on: NCI-H460
NCI-H522 = tested on: NCI-H522
OVCAR-3 = tested on: OVCAR-3
OVCAR-4 = tested on: OVCAR-4
OVCAR-5 = tested on: OVCAR-5
OVCAR-8 = tested on: OVCAR-8
RPMI-8226 = tested on: RPMI-8226
RXF 393 = tested on: RXF 393
RXF 631 = tested on: RXF 631
SF-295 = tested on: SF-295
SF-539 = tested on: SF-539
SK-MEL-2 = tested on: SK-MEL-2
SK-MEL-5 = tested on: SK-MEL-5
SK-OV-3 = tested on: SK-OV-3
SN12C = tested on: SN12C
SNB-19 = tested on: SNB-19
SNB-75 = tested on: SNB-75
SNB-78 = tested on: SNB-78
SR = tested on: SR
SW-620 = tested on: SW-620
TK-10 = tested on: TK-10
U-251 = tested on: U-251
UACC-257 = tested on: UACC-257
UACC-62 = tested on: UACC-62
UO-31 = tested on: UO-31
XF498 = tested on: XF498
DMS-114 = tested on: DMS-114
HOP-92 = tested on: HOP-92
SF-268 = tested on: SF-268
SK-MEL-28 = tested on: SK-MEL-28

Structure (SMILES): Cc1ccc(S(=O)(=O)N(C=O)N=C2CCN(Cc3ccccc3)CC2)cc1
- GI50 (786-0): > 100 µM (inactive)
- GI50 (A498): > 100 µM (inactive)
- GI50 (A549): > 100 µM (inactive)
- GI50 (ACHN): > 100 µM (inactive)
- GI50 (CAKI-1): > 100 µM (inactive)
- GI50 (CCRF-CEM): > 100 µM (inactive)
- GI50 (COLO 205): > 100 µM (inactive)
- GI50 (DLD-1): > 100 µM (inactive)
- GI50 (DMS-273): > 100 µM (inactive)
- GI50 (EKVX): > 100 µM (inactive)
- GI50 (HCC 2998): > 100 µM (inactive)
- GI50 (HCT-116): > 100 µM (inactive)
- GI50 (HCT-15): > 100 µM
- GI50 (HL-60): > 100 µM (inactive)
- GI50 (HOP-18): > 100 µM (inactive)
- GI50 (HOP-62): > 100 µM (inactive)
- GI50 (HT-29): > 100 µM (inactive)
- GI50 (IGROV-1): > 100 µM (inactive)
- GI50 (K562): > 100 µM (inactive)
- GI50 (KM-20L2): > 100 µM (inactive)
- GI50 (KM12): > 100 µM (inactive)
- GI50 (LOX IMVI): > 100 µM (inactive)
- GI50 (LXFL 529): > 100 µM (inactive)
- GI50 (M14): > 100 µM (inactive)
- GI50 (M19-MEL): > 100 µM (inactive)
- GI50 (MOLT-4): > 100 µM (inactive)
- GI50 (Malme-3M): > 100 µM (inactive)
- GI50 (NCI-H226): > 100 µM (inactive)
- GI50 (NCI-H23): > 100 µM (inactive)
- GI50 (NCI-H460): > 100 µM (inactive)
- GI50 (NCI-H522): > 100 µM (inactive)
- GI50 (OVCAR-3): > 100 µM (inactive)
- GI50 (OVCAR-4): > 100 µM (inactive)
- GI50 (OVCAR-5): > 100 µM (inactive)
- GI50 (OVCAR-8): > 100 µM (inactive)
- GI50 (RPMI-8226): > 100 µM (inactive)
- GI50 (RXF 393): > 100 µM (inactive)
- GI50 (RXF 631): > 100 µM (inactive)
- GI50 (SF-295): > 100 µM (inactive)
- GI50 (SF-539): > 100 µM (inactive)
- GI50 (SK-MEL-2): > 100 µM (inactive)
- GI50 (SK-MEL-5): > 100 µM (inactive)
- GI50 (SK-OV-3): > 100 µM (inactive)
- GI50 (SN12C): > 100 µM (inactive)
- GI50 (SNB-19): > 100 µM (inactive)
- GI50 (SNB-75): > 100 µM (inactive)
- GI50 (SNB-78): > 100 µM (inactive)
- GI50 (SR): > 100 µM (inactive)
- GI50 (SW-620): > 100 µM (inactive)
- GI50 (TK-10): > 100 µM (inactive)
- GI50 (U-251): > 100 µM (inactive)
- GI50 (UACC-257): > 100 µM (inactive)
- GI50 (UACC-62): > 100 µM (inactive)
- GI50 (UO-31): > 100 µM (inactive)
- GI50 (XF498): > 100 µM (inactive)

Structure (SMILES): Cn1nc(-c2ccccc2)c2c(/C=C/c3ccc(Cl)cc3)onc2c1=O
- GI50 (786-0): 7.6 µM (inactive)
- GI50 (A549): 8.95 µM (inactive)
- GI50 (ACHN): 8.57 µM (inactive)
- GI50 (CAKI-1): > 10 µM (inactive)
- GI50 (CCRF-CEM): 27.7 µM (inactive)
- GI50 (COLO 205): 30.8 µM (inactive)
- GI50 (DLD-1): 46 µM (inactive)
- GI50 (DMS-114): > 100 µM (inactive)
- GI50 (DMS-273): > 100 µM (inactive)
- GI50 (EKVX): > 100 µM (inactive)
- GI50 (HCT-116): 11.1 µM (inactive)
- GI50 (HCT-15): 26.3 µM
- GI50 (HOP-18): 9.84 µM (inactive)
- GI50 (HOP-92): 21.7 µM (inactive)
- GI50 (HT-29): 34.4 µM (inactive)
- GI50 (IGROV-1): 31.4 µM (inactive)
- GI50 (K562): 40.8 µM (inactive)
- GI50 (KM-20L2): 19.1 µM (inactive)
- GI50 (LOX IMVI): 25.6 µM (inactive)
- GI50 (LXFL 529): 39.9 µM (inactive)
- GI50 (M14): > 100 µM (inactive)
- GI50 (M19-MEL): 89.9 µM (inactive)
- GI50 (MOLT-4): > 100 µM (inactive)
- GI50 (NCI-H23): > 100 µM (inactive)
- GI50 (NCI-H460): > 100 µM (inactive)
- GI50 (NCI-H522): 13.3 µM (inactive)
- GI50 (OVCAR-8): 16.7 µM (inactive)
- GI50 (RPMI-8226): 31.8 µM (inactive)
- GI50 (RXF 393): 39.8 µM (inactive)
- GI50 (RXF 631): > 100 µM (inactive)
- GI50 (SF-268): > 100 µM (inactive)
- GI50 (SF-295): 27.4 µM (inactive)
- GI50 (SF-539): 22.6 µM (inactive)
- GI50 (SK-MEL-28): 51.3 µM (inactive)
- GI50 (SK-MEL-5): > 100 µM (inactive)
- GI50 (SK-OV-3): > 10 µM (inactive)
- GI50 (SN12C): 17.1 µM (inactive)
- GI50 (SNB-19): 41.5 µM (inactive)
- GI50 (SW-620): 28.7 µM (inactive)
- GI50 (TK-10): 33 µM (inactive)
- GI50 (U-251): 33.7 µM (inactive)
- GI50 (UACC-62): 35.8 µM (inactive)
- GI50 (UO-31): 16.3 µM (inactive)
- GI50 (XF498): 10.5 µM (inactive)

Structure (SMILES): c1ccc2c(c1)[nH]c1c2nc2ccccn21
- GI50 (786-0): 81.3 µM (inactive)
- GI50 (A498): 85.5 µM (inactive)
- GI50 (CAKI-1): 67.9 µM (inactive)
- GI50 (DLD-1): 66.1 µM (inactive)
- GI50 (HCC 2998): > 100 µM (inactive)
- GI50 (HOP-62): > 100 µM (inactive)
- GI50 (K562): 74.3 µM (inactive)
- GI50 (M19-MEL): > 100 µM (inactive)
- GI50 (NCI-H226): > 100 µM (inactive)
- GI50 (NCI-H522): > 100 µM (inactive)
- GI50 (RXF 393): > 100 µM (inactive)
- GI50 (RXF 631): > 100 µM (inactive)
- GI50 (SF-295): > 100 µM (inactive)
- GI50 (SF-539): > 100 µM (inactive)
- GI50 (SK-MEL-2): > 100 µM (inactive)
- GI50 (SN12C): > 100 µM (inactive)
- GI50 (SR): > 100 µM (inactive)
- GI50 (XF498): > 100 µM (inactive)

Structure (SMILES): CC1=C(C)CC2(SC1)C(=O)c1ccccc1C2=O
- GI50 (786-0): > 100 µM (inactive)
- GI50 (A498): > 100 µM (inactive)
- GI50 (A549): > 100 µM (inactive)
- GI50 (ACHN): > 100 µM (inactive)
- GI50 (CAKI-1): 65.9 µM (inactive)
- GI50 (CCRF-CEM): 93.8 µM (inactive)
- GI50 (COLO 205): > 100 µM (inactive)
- GI50 (DLD-1): > 100 µM (inactive)
- GI50 (DMS-114): > 100 µM (inactive)
- GI50 (DMS-273): > 100 µM (inactive)
- GI50 (HCC 2998): > 100 µM (inactive)
- GI50 (HCT-116): > 100 µM (inactive)
- GI50 (HCT-15): > 100 µM
- GI50 (HL-60): > 100 µM (inactive)
- GI50 (HOP-18): > 100 µM (inactive)
- GI50 (HOP-62): > 100 µM (inactive)
- GI50 (HOP-92): 65.8 µM (inactive)
- GI50 (HT-29): > 100 µM (inactive)
- GI50 (IGROV-1): > 100 µM (inactive)
- GI50 (K562): > 100 µM (inactive)
- GI50 (KM-20L2): > 100 µM (inactive)
- GI50 (KM12): > 100 µM (inactive)
- GI50 (LOX IMVI): > 100 µM (inactive)
- GI50 (LXFL 529): > 100 µM (inactive)
- GI50 (M14): > 100 µM (inactive)
- GI50 (M19-MEL): > 100 µM (inactive)
- GI50 (MOLT-4): > 100 µM (inactive)
- GI50 (Malme-3M): > 100 µM (inactive)
- GI50 (NCI-H226): > 100 µM (inactive)
- GI50 (NCI-H460): > 100 µM (inactive)
- GI50 (NCI-H522): > 100 µM (inactive)
- GI50 (OVCAR-4): > 100 µM (inactive)
- GI50 (OVCAR-5): > 100 µM (inactive)
- GI50 (OVCAR-8): > 100 µM (inactive)
- GI50 (RPMI-8226): > 100 µM (inactive)
- GI50 (RXF 393): > 100 µM (inactive)
- GI50 (RXF 631): > 100 µM (inactive)
- GI50 (SF-268): > 100 µM (inactive)
- GI50 (SF-295): > 100 µM (inactive)
- GI50 (SF-539): > 100 µM (inactive)
- GI50 (SK-MEL-2): > 100 µM (inactive)
- GI50 (SK-MEL-5): > 100 µM (inactive)
- GI50 (SK-OV-3): > 100 µM (inactive)
- GI50 (SN12C): > 100 µM (inactive)
- GI50 (SNB-19): > 100 µM (inactive)
- GI50 (SNB-75): > 100 µM (inactive)
- GI50 (SNB-78): > 100 µM (inactive)
- GI50 (SR): > 100 µM (inactive)
- GI50 (SW-620): > 100 µM (inactive)
- GI50 (TK-10): > 100 µM (inactive)
- GI50 (U-251): > 100 µM (inactive)
- GI50 (UACC-257): > 100 µM (inactive)
- GI50 (UACC-62): > 100 µM (inactive)
- GI50 (UO-31): 66.1 µM (inactive)
